According to PMC7044277 (Nature Communications, 2020):
“And” between values parts separate entries of the source, which are not always exact repeats. Equal values may be shown once.

Assays:
Assay type in all cases: cell-based
5HT7A = biological target: T1, 5HT7A (Homo sapiens, UniProt P34969); assay: β-arrestin2 recruitment (Tango); details: for β-arrestin2 recruitment response, replicate points of concentration-response curve: Fig_S10q, agonist mode
T1 construct: expressed in transfected cells; host or cells: HTLA cells expressing TEV-fused β-arrestin2

DRD1 = DRD1 (Homo sapiens, UniProt P21728); assay: β-arrestin2 recruitment (Tango); details: agonist mode
DRD2 S1945.43G = biological target: T2, DRD2 S1945.43G (Homo sapiens, UniProt P14416, S194G); assay: Gαi/o-mediated cAMP inhibition (GloSensor), mutant; details: DRD2 Ser5.43Gly; G-protein assay
T2 construct: expressed in transfected cells; host or cells: HEK293T (ATCC CRL-11268)

5HT6 = biological target: T3, 5HT6 (Homo sapiens, UniProt P50406); assay: β-arrestin2 recruitment (Tango); details: Fig_S10p, agonist mode
T3 construct: expressed in transfected cells; host or cells: HTLA cells expressing TEV-fused β-arrestin2
T3 sequence (P50406 whole entry, the tested form may be a part): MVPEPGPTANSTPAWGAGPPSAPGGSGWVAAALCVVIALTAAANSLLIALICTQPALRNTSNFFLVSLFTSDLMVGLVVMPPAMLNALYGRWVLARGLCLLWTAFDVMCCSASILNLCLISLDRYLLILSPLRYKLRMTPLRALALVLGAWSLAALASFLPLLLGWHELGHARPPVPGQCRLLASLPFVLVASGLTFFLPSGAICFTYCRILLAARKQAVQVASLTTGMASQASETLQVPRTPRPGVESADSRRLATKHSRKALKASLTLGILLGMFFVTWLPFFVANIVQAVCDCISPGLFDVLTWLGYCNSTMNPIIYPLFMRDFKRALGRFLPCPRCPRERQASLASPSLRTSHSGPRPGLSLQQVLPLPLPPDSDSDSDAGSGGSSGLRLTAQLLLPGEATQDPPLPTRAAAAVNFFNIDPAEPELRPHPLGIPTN

T1 sequence (P34969 1-445 isoform P34969-2): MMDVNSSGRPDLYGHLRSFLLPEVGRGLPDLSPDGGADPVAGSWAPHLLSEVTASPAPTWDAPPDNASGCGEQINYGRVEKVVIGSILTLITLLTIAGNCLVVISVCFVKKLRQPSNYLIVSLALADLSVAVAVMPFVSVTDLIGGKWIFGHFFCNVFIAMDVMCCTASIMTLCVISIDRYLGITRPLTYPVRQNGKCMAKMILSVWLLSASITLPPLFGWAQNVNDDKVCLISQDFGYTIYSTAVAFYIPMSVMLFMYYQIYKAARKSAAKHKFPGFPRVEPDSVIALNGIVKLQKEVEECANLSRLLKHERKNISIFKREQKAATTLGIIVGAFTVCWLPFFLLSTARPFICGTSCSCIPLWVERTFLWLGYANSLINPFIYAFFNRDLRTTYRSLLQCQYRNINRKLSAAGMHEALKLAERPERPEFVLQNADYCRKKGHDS
Chain of DRD1 (P21728 whole entry): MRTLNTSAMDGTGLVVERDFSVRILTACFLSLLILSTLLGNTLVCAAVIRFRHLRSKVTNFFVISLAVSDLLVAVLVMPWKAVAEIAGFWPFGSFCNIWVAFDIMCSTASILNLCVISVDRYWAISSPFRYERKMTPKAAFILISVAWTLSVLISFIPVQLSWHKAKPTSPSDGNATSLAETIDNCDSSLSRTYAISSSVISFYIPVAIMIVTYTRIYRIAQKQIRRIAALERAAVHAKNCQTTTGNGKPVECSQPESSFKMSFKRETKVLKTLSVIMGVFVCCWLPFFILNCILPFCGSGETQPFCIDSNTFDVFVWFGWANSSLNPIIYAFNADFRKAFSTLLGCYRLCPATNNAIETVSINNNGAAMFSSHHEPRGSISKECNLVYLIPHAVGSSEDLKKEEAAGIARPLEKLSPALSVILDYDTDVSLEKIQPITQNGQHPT
T2 sequence (P14416 whole entry S194G): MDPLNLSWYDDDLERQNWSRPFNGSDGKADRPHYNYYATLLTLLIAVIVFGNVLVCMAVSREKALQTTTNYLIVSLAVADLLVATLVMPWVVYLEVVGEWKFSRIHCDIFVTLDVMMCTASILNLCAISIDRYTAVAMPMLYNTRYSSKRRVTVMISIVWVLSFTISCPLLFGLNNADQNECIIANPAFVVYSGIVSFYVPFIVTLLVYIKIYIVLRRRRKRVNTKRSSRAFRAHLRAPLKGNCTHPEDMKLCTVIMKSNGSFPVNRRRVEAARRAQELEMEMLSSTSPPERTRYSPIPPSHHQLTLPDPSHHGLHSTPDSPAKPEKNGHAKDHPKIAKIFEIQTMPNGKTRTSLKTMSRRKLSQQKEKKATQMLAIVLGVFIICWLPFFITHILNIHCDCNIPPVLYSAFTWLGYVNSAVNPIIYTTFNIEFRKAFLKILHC

## CCOc1cccc2cc([C@@H](C)NCC3(O)CCCCC3)oc12 [O4RE6]
5HT7A; 5HT7A, agonist activity only at high concentrations
  concentration at which the receptor is activated: over 1 μM
5HT7A; Log[Drug] -8.52
  β-arrestin2 recruitment response, replicate points of concentration-response curve: -12.5786 and -8.044 and 1.071 and -9.7421 and 32.4405 and 49.1467 and -14.2149 and 16.5223 and -11.2331 and 4.354 and 35.2448 and 10.2419
5HT7A; Log[Drug] -9
  β-arrestin2 recruitment response, replicate points of concentration-response curve: 10.8788 and 4.459 and -14.1005 and -17.9842 and -16.1246 and -21.1449 and -7.127 and 62.1289 and 35.3983 and -32.9912 and 26.9263 and -33.8761
5HT7A; Log[Drug] -9.52
  β-arrestin2 recruitment response, replicate points of concentration-response curve: -17.7926 and -13.0806 and -8.59 and 76.7429 and -5.732 and -9.941 and -9.587 and 8.198 and -49.3687 and 45.8761
5HT7A; Log[Drug] -10
  β-arrestin2 recruitment response, replicate points of concentration-response curve: 8.776 and -5.649 and -4.779 and -6.75 and 22.3693 and -13.4231 and 66.8562 and 10.9818 and 67.3785 and -0.5782 and 14.0649 and -7.044
5HT7A; Log[Drug] -10.52
  β-arrestin2 recruitment response, replicate points of concentration-response curve: 3.024 and -18.69 and -0.8855 and -5.258 and -47.1876 and -14.9154 and -10.2215 and 7.524 and 59.795 and 14.1475 and 8.932 and -11.705
5HT7A; Log[Drug] -11
  β-arrestin2 recruitment response, replicate points of concentration-response curve: 2.617 and -4.127 and -1.973 and 44.555 and 24.1984 and -23.678 and 55.762 and 41.0711 and -15.762 and -13.3333 and -38.2183 and -14.0059
5HT7A; Log[Drug] -11.52
  β-arrestin2 recruitment response, replicate points of concentration-response curve: 10.0328 and 5.163 and -15.1797 and -41.8076 and 36.1292 and 53.417 and 13.0909 and -3.233 and 13.8777 and 47.469 and -14.7611 and -41.4631
5HT7A; Log[Drug] -12
  β-arrestin2 recruitment response, replicate points of concentration-response curve: -10.6692 and 6.787 and -7.578 and 7.025 and -23.6244 and 50.44 and -4.476 and 12.3769 and -7.901 and 14.5015 and 35.0914 and -7.516
DRD1; Log[Drug] -6.52
  Fig_S10d concentration-response source data, compound alone (replicates): 1.905
DRD1; Log[Drug] -7
  Fig_S10d concentration-response source data, compound alone (replicates): 1.064 and 2.282 and -0.6391 and 0.289 and -0.08278 and 0.4865 and -0.4054 and 1.577 and 0.01217
DRD1; Log[Drug] -7.52
  Fig_S10d concentration-response source data, compound alone (replicates): 1.077 and 0.9051 and -0.1158 and 0.04295 and -0.04452 and 0.1062 and 0.53 and 4.578 and 0.07397
DRD1; Log[Drug] -8
  Fig_S10d concentration-response source data, compound alone (replicates): 0.3903 and 0.04289 and 0.7249 and 0.1109 and 0.1132 and -0.0164 and 0.2378 and 0.7481 and 0.5777
DRD1; Log[Drug] -8.52
  Fig_S10d concentration-response source data, compound alone (replicates): 1.047 and 2.106 and 1.068 and 0.04686 and -0.2007 and -0.1148 and -0.01592 and 0.004682 and 0.05431
DRD1; Log[Drug] -9
  Fig_S10d concentration-response source data, compound alone (replicates): 0.3903 and 1.591 and 1.077 and 0.9231 and 0.04452 and 0.3311 and -0.4785 and 2.978 and 0.1554
DRD1; Log[Drug] -9.52
  Fig_S10d concentration-response source data, compound alone (replicates): 0.3689 and -0.1244 and 0.7292 and 0.2936 and 0.3303 and 0.01406 and 0.5824 and 0.412 and 0.617
DRD1; Log[Drug] -10
  Fig_S10d concentration-response source data, compound alone (replicates): 7.429 and 0.8836 and 0.03432 and 0.6724 and -0.1109 and 0.4569 and -0.09176 and 0.9157 and -0.1386
DRD1; Log[Drug] -10.52
  Fig_S10d concentration-response source data, compound alone (replicates): -0.3217 and 1.253 and 1.072 and 0.2647 and -0.2624 and -0.04452 and -0.9541 and 0.426 and 0.1283
DRD1; Log[Drug] -11
  Fig_S10d concentration-response source data, compound alone (replicates): 0.05147 and 1.072 and 2.964 and 0.7974 and -0.07497 and -0.2936 and -0.2444 and 1.441 and -0.4363
DRD1; Log[Drug] -11.52
  Fig_S10d concentration-response source data, compound alone (replicates): 1.244 and 0.2102 and -0.6649 and -0.01562 and -0.1695 and 0.02187 and -0.1648 and 0.6545 and -0.5449
DRD1; Log[Drug] -12
  Fig_S10d concentration-response source data, compound alone (replicates): 0.04289 and 4.504 and 6.396 and -0.1351 and 0.3358 and -0.1991 and -0.1554 and -0.2734 and -0.1919
DRD2 S1945.43G
  agonism after serine to glycine substitution: impaired
5HT6; Log[Drug] -6
  β-arrestin2 recruitment response, replicate points of concentration-response curve: 0.6179
5HT6; Log[Drug] -6.52
  β-arrestin2 recruitment response, replicate points of concentration-response curve: 2.255 and 6.005 and -0.9593 and 0.5245 and -8.852 and -1.095 and 3.803 and 14.7296 and 1.5314
5HT6; Log[Drug] -7
  β-arrestin2 recruitment response, replicate points of concentration-response curve: 2.737 and -0.8021 and 0.3035 and -9.828 and -11.4107 and -3.313 and -1.206 and -3.514 and 45.5574
5HT6; Log[Drug] -7.52
  β-arrestin2 recruitment response, replicate points of concentration-response curve: 9.506 and 14.1402 and 17.6522 and -10.6377 and -5.208 and -2.549 and -1.295 and 2.071 and -1.605
5HT6; Log[Drug] -8
  β-arrestin2 recruitment response, replicate points of concentration-response curve: -0.645 and 1.165 and 0.2927 and -3.147 and 13.2695 and -12.1837 and -4.853 and 0.614 and -2.656
5HT6; Log[Drug] -8.52
  β-arrestin2 recruitment response, replicate points of concentration-response curve: -0.1626 and 4.9103 and -0.3035 and -9.285 and -10.3985 and -13.5456 and -5.689 and -5.904 and -4.713
5HT6; Log[Drug] -9
  β-arrestin2 recruitment response, replicate points of concentration-response curve: 5.962 and 3.36 and 0.775 and -2.264 and 6.672 and -11.4475 and -4.468 and 0.05179 and -2.649
5HT6; Log[Drug] -9.52
  β-arrestin2 recruitment response, replicate points of concentration-response curve: 0.7804 and -0.09756 and 1.653 and -9.57 and -13.2511 and -10.2512 and -0.9174 and -5.319 and -2.049
5HT6; Log[Drug] -10
  β-arrestin2 recruitment response, replicate points of concentration-response curve: -1.848 and 4.038 and 4.894 and -4.813 and -13.9689 and -2.9539 and 13.3388 and -5.371 and 2.353
5HT6; Log[Drug] -10.52
  β-arrestin2 recruitment response, replicate points of concentration-response curve: 1.577 and 1.859 and -0.3143 and -10.7113 and -10.242 and -8.8801 and -0.04439 and -4.439 and 2.981
5HT6; Log[Drug] -11
  β-arrestin2 recruitment response, replicate points of concentration-response curve: -1.149 and 2.054 and 0.1355 and -7.003 and -10.3432 and 9.598 and -3.27 and -3.4993 and -5.608
5HT6; Log[Drug] -11.52
  β-arrestin2 recruitment response, replicate points of concentration-response curve: -1.182 and 12.7148 and 3.068 and 1.2699 and -8.8985 and -8.135 and 6.251 and -5.941 and -5.608
